Measured values published in article PMC2206373, “Identification of an altered peptide ligand based on the endogenously presented, rheumatoid arthritis-associated, human cartilage glycoprotein-39(263–275) epitope: an MHC anchor variant peptide for immune modulation” (Arthritis Research & Therapy, 2007).
Read-outs that look alike come from different tables or passages of the source. Non-standard residues stand in square brackets, D forms with d. Residues, ends and D or L forms follow the SMILES beside them. No end group written: not given here. Dip = N[C@H](C(=O)O)C(c1ccccc1)c1ccccc1; Tic = O=C(O)[C@@H]1Cc2ccccc2CN1

Key:
HLA-DR4(B1*0401) = HLA-DR4(B1*0401) (Homo sapiens, UniProt P01903+P01911, A100K/A169T/F76Y/I96L/K127E/L162R/M171V/N62H/P40V/Q125Y/R42H/S133A/S149N/S66Y/V115G/V209L/W38E); assay: HLA-DR4 competition peptide binding assay; details: competition with biotinylated HA307-319 (Y309F) 50 nM, purified HLA-DR4 30 nM, pH 5, 48 h, room temperature
Procedure: HLA-DR bound marker peptide was separated from free marker peptide and the amount of bound marker peptide was detected and quantified by enhanced chemoluminescense. Inhibition curves were generated and the IC50 was determined. The concentration of competitor peptide inducing 50% inhibition of marker peptide binding was determined, and expressed as the 50% inhibitory concentration (IC50 in μM).

T cell hybridoma 5G11 = assay: T hybridoma 5G11 IL-2 response; type: cell-based, mouse; details: for Hybridoma response (SI) 5G11: IL-2 by ELISA after 48 h, peptide 10 μg/ml, SI > 2 positive; for Hybridoma response (SI) 5G11 / T hybridoma (SI) 5G11: DRB1*0401 BLCL as APC; for T hybridoma (SI) 5G11: Figure 1, IL-2 production, duplicate or triplicate, background 29,203 counts, ±30% of WT response = super/partial agonist
Procedure: (§1) The T cell hybridomas, provided by G Sonderstrup (Stanford, CA, USA), were generated as described. In brief, human CD4, HLA-DRA*101/HLA-DRB*0401 triple transgenic (HLA-DR4trg) mice (devoid of I-Aβ) were immunized in the footpad with 50 μg of purified HC gp-39 mixed in incomplete Freund's adjuvant (IFA). Draining lymph nodes were isolated and T-cell hybridomas were generated by polyethylene glycol fusion of primed and in vitro antigen-restimulated lymph node cells with the AKR BW5147 fusion partner. Following fusion, growth-positive hybridoma wells were screened for reactivity to HC gp-39 and a set of 55 peptides (16 amino acids in length) covering the entire HC gp-39 sequence. HLA-DR4(B1*0401)-restricted hybridomas responsive to both the HC gp-39 protein and the immunodominant epitope 263–275 of HC gp-39 (for example, 5G11, 8B12, 14G11 and 20H5) were cloned, subcloned, characterised and selected for further study.
(§2) HC gp-39-specific IL-2 production by T hybridomas was measured in wells of round-bottomed microtiter plates. Hybridoma cells (2 to 5 × 10^4) and irradiated APC (0.5 to 1 × 10^5; 12,000 to 16,000 RAD) from the B lymphoblastoid cell line (BLCL) carrying the DRB1*0401 specificity were incubated in 150 μl volumes. Antigen was added in 50 μl volumes to duplicate wells. After 48 h, 100 μl of the culture supernatant was assayed for IL-2 production using a sandwich ELISA with Pharmingen antibodies specific for mouse IL-2. The antigen sensitivity of the hybridomas to both peptide and protein was determined (Figure 2). […] In later assays, an excess of peptide or APL (10 μg/ml), inducing maximal responses in all hybridomas, was tested.

T cell hybridoma 8B12 = assay: T hybridoma 8B12 IL-2 response; type: cell-based, mouse; details: for Hybridoma response (SI) 8B12: IL-2 by ELISA after 48 h, peptide 10 μg/ml, SI > 2 positive; for Hybridoma response (SI) 8B12 / T hybridoma (SI) 8B12: DRB1*0401 BLCL as APC; for T hybridoma (SI) 8B12: Figure 1, IL-2 production, duplicate or triplicate, background 16,288 counts, ±30% of WT response = super/partial agonist; for Hybridoma 8B12 activation (IL-2 production) in words: Figure 1 experiment, compared with WT peptide
Procedure: as §1, §2

T cell hybridoma 14G11 = assay: T hybridoma 14G11 IL-2 response; type: cell-based, mouse; details: for Hybridoma response (SI) 14G11: IL-2 by ELISA after 48 h, peptide 10 μg/ml, SI > 2 positive; for Hybridoma response (SI) 14G11 / T hybridoma (SI) 14G11: DRB1*0401 BLCL as APC; for T hybridoma (SI) 14G11: Figure 1, IL-2 production, duplicate or triplicate, background 7,152 counts, ±30% of WT response = super/partial agonist; for Hybridoma 14G11 activation (IL-2 production) in words: Figure 1 experiment, compared with WT peptide
Procedure: as §1, §2

T cell hybridoma 20H5 = assay: T hybridoma 20H5 IL-2 response; type: cell-based, mouse; details: for Hybridoma response (SI) 20H5: IL-2 by ELISA after 48 h, peptide 10 μg/ml, DRB1*0401 BLCL as APC, SI > 2 positive
Procedure: as §1, §2

[1] = test system: popliteal lymph node cells from HC gp-39(263–275)-immunized huCD4, HLA-DR4 transgenic mice; assay: Antigen-specific proliferation of popliteal lymph node cells from WT peptide-immunized mice; type: cell-based, mouse; details: for Prol (SI): 96 h, tritiated thymidine, background 407 cpm, SI > 2 positive, SD not above 30%; for Ex vivo recall proliferative response in words: Figure 4a, WT peptide-immunized HLA-DR4trg mice
Procedure: (§3) Mice, obtained from L Fugger (Oxford, UK), were immunized in the hind footpads with 2 × 50 μg of purified recombinant HC gp-39, with 2 × 100 μg of the WT peptide or with 2 × 100 μg of the APL (F265(Dip); compound 28; Figure 1) mixed in IFA. Seven days later, popliteal lymph node cell suspensions (1 to 2 × 10^5 cells/well) were stimulated in vitro with HC gp-39 (50, 10 or 2 μg/ml), HC gp-39(263–275) or APL (10, 2 and 0.4 μg/ml). At 96 h, 50 μl of culture medium was harvested for analysis of antigen-specific cytokine production using Luminex technology (mouse cytokine 18 Plex Panel, catalogue no. 171-F11181, Biorad, Bio-Rad Laboratories, Hercules, CA, USA). In addition, cultures were labelled with tritiated thymidine (for 18 h) and antigen-specific proliferation was determined. We state that all animal experimentation received ethics approval and animals were treated according to the recognized guidelines.

[2] = test system: popliteal lymph node cells from HC gp-39(263–275)-immunized huCD4, HLA-DR4 transgenic mice; assay: Antigen-specific cytokine production of popliteal lymph node cells from WT peptide-immunized mice; type: cell-based, mouse; details: for IFNγ concentration / MIP1α concentration / RANTES concentration: 96 h supernatant, Luminex; for Ex vivo recall IFNγ production in words / Ex vivo recall Mip1α production in words / Ex vivo recall RANTES production in words: Figure 4a, WT peptide-immunized HLA-DR4trg mice
Procedure: as §3

[3] = test system: popliteal lymph node cells from F265(Dip)-immunized HLA-DR4trg mice; assay: Antigen-specific proliferation of popliteal lymph node cells from F265(Dip)-immunized mice; type: cell-based, mouse; details: Figure 4b
Procedure: as §3

[4] = test system: popliteal lymph node cells from F265(Dip)-immunized HLA-DR4trg mice; assay: Antigen-specific cytokine production of popliteal lymph node cells from F265(Dip)-immunized mice; type: cell-based, mouse; details: Figure 4b
Procedure: as §3

[5] = Figure 1, read-out: DRB1*0401 binding IC50
[6] = Table 1, geometric mean of two experiments, read-out: HLA-DR binding IC50
[7] = Table 1, background 8,147 counts, representative of at least three experiments
[8] = Table 1, background 7,470 counts, representative of at least three experiments
[9] = Table 1, background 8,598 counts, representative of at least three experiments
[10] = Table 1, background 35,749 counts, representative of at least three experiments

Compound | In vitro recall proliferative response in words [3] | In vitro recall IFNγ production in words [4] | In vitro recall Mip1α production in words [4] | In vitro recall RANTES production in words [4] | IC50 (HLA-DR4(B1*0401); [5]) [nM] | T hybridoma (SI) 5G11 (T cell hybridoma 5G11) [SI] | T hybridoma (SI) 8B12 (T cell hybridoma 8B12) [SI] | Hybridoma 8B12 activation (IL-2 production) in words (T cell hybridoma 8B12) | T hybridoma (SI) 14G11 (T cell hybridoma 14G11) [SI] | Hybridoma 14G11 activation (IL-2 production) in words (T cell hybridoma 14G11) | Ex vivo recall proliferative response in words [1] | Ex vivo recall IFNγ production in words [2] | Ex vivo recall Mip1α production in words [2] | Ex vivo recall RANTES production in words [2] | IC50 (HLA-DR4(B1*0401); [6]) [nM] | Hybridoma response (SI) 5G11 (T cell hybridoma 5G11; [7]) [SI] | Hybridoma response (SI) 8B12 (T cell hybridoma 8B12; [8]) [SI] | Hybridoma response (SI) 14G11 (T cell hybridoma 14G11; [9]) [SI] | Hybridoma response (SI) 20H5 (T cell hybridoma 20H5; [10]) [SI] | other results
RSATLASSETGVG [Compound 12] |  |  |  |  |  |  |  |  |  |  |  |  |  |  |  |  |  |  |  | IC50 (HLA-DR4(B1*0401); Table 2, read-out: HLA-DR binding IC50): > 35000 nM; Recognition by hybridoma 5G11 in words (T cell hybridoma 5G11; Table 2): not recognized; Hybridoma response (SI) 5G11 (T cell hybridoma 5G11; Table 2, background 17,238 counts, SD not above 15%): 2 SI; Reactivity of hybridoma 8B12 in words (T cell hybridoma 8B12; Table 2): affected to a lesser extent; Hybridoma response (SI) 8B12 (T cell hybridoma 8B12; Table 2, background 8,773 counts, SD not above 15%): 6 SI; Recognition by hybridoma 14G11 in words (T cell hybridoma 14G11; Table 2): not recognized; Hybridoma response (SI) 14G11 (T cell hybridoma 14G11; Table 2, background 10,131 counts, SD not above 15%): 2 SI; Reactivity of hybridoma 20H5 in words (T cell hybridoma 20H5; Table 2): only slightly affected; Hybridoma response (SI) 20H5 (T cell hybridoma 20H5; Table 2, background 290,666 counts, SD not above 15%): 4 SI; Polyclonal response (proliferation and cytokine production) in words ([1]; Table 3, lymph node cells of WT peptide-immunized HLA-DR4trg mice): did not elicit a significant response; Prol (SI) ([1]; peptide 2 μg/ml): 1 SI; Prol (SI) ([1]; peptide 10 μg/ml): 3 SI; IFNγ concentration ([2]; peptide 2 μg/ml): <5 pg/mL; MIP1α concentration ([2]; peptide 2 μg/ml): <24 pg/mL; RANTES concentration ([2]; peptide 2 μg/ml): <6 pg/mL; IFNγ concentration ([2]; peptide 10 μg/ml): <5 pg/mL; MIP1α concentration ([2]; peptide 10 μg/ml): 27 pg/mL; RANTES concentration ([2]; peptide 10 μg/ml): 9 pg/mL
human cartilage glycoprotein-39 [HC gp-39 protein] | somewhat less | failed to induce significant levels | failed to induce significant levels | failed to induce significant levels |  |  |  |  |  |  |  |  |  |  |  |  |  |  |  | 
CC(C)C[C@H](NC(=O)[C@@H](NC(=O)[C@@H](NC(=O)[C@H](CO)NC(=O)[C@@H](N)CCCNC(=N)N)C(c1ccccc1)c1ccccc1)[C@@H](C)O)C(=O)N[C@@H](C)C(=O)N[C@@H](CO)C(=O)N[C@@H](CO)C(=O)N[C@@H](CCC(=O)O)C(=O)N[C@H](C(=O)NCC(=O)N[C@H](C(=O)NCC(=O)O)C(C)C)[C@@H](C)O [Compound 28] (H-RS[Dip]TLASSETGVG-OH) | good proliferative activity | barely detectable | barely detectable | barely detectable | 10 | 29 | 5 | partial activation | 6 | partial activation | comparable proliferative responses | lesser | unaltered | unaltered |  |  |  |  |  | 
TLASSETGVG [Compound 7] |  |  |  |  |  |  |  |  |  |  |  |  |  |  | > 100000 | 1 | 1 | 1 | 5 | 
CC(C)C[C@H](NC(=O)[C@@H](NC(=O)[C@@H]1Cc2ccccc2CN1C(=O)[C@H](CO)NC(=O)[C@@H](N)CCCNC(=N)N)[C@@H](C)O)C(=O)N[C@@H](C)C(=O)N[C@@H](CO)C(=O)N[C@@H](CO)C(=O)N[C@@H](CCC(=O)O)C(=O)N[C@H](C(=O)NCC(=O)N[C@H](C(=O)NCC(=O)O)C(C)C)[C@@H](C)O [Compound 27] (H-RS[Tic]TLASSETGVG-OH) |  | failed to induce significant levels | failed to induce significant levels | failed to induce significant levels | 21 | 12 | 8 | partial activation | 21 | partial activation | comparable proliferative responses | increased production | increased production | increased production |  |  |  |  |  | Hybridoma 5G11 activation (IL-2 production) in words (T cell hybridoma 5G11; Figure 1 experiment, compared with WT peptide): partial activation
LASSETGVG [Compound 8] |  |  |  |  |  |  |  |  |  |  |  |  |  |  | > 100000 | 1 | 1 | 1 | 1 | 
